Tests used:
[1] = racemic nitrendipine; cited from earlier work
[2] = oral administration with water; cited from earlier work
CYP3A4 = conditions: cited from earlier work
[3] = test system: felodipine first-pass metabolism; conditions: in vivo; cited from earlier work
cytochrome P450 3A4 [4] = target: T1, cytochrome P450 3A4 (Homo sapiens, UniProt P08684); test: Inhibition of cyclosporin A metabolism (3 metabolites M1, M6, M21) by yeast-expressed P450 3A4 microsomes; format: biochemical
T1 construct: made in house; host or cells: Saccharomyces cerevisiae strain AH22, vector pAAH5 (p3A4); microsomal fractions
Experimental: Human cytochrome P450 3A4 was expressed using the vector pAAH5 (p3A4) in Saccharomyces cerevisiae strain AH22 (Guengerich et al., 1991). Plasmid DNA was prepared using Promega's Wizard kit and S. cerevisiae strain AH22 (a his4-519 leu2-3,2-112) was used for transformation. Transformants were grown and maintained at 30° C. on minimal medium containing 2% (w/v) glucose, 0.67% (w/v) Difco yeast nitrogen base without amino acids and 20 μg/ml histidine. Cytochrome P450 content and substrate binding studies were carried out spectrally using a Philips PU8800 US/Vis scanning spectrophotometer according to Omura and Sato (1964) and Jefcoate (1979) respectively. Protein content was determined by the method of Lowry et al. 1956. […] CO was bubbled into the sample cuvette and the difference spectrum was recorded between 390-500 nm. […] Nootkatone was added to the microsomal fractions in the sample cuvette but to the buffer in the reference cuvette and difference spectra recorded between 350-500 nm. […]
The ethyl acetate extracts from biotransformation studies were directly spotted on to TLC plates and developed in solvent system heptane/pyridine/ethyl acetate (100/75/1 v/v) in a chromatographic tank lined with a blotting paper the same size as the TLC plate. […] The Rf valves of spots were measured and compared to the literature. […]

[5] = test system: cytochrome P450 or related enzyme system; test: Inhibition of the first enzyme catalysed oxidative step (conversion of valencene to nootkatone); format: cell-based, both eukaryotes and prokaryotes; conditions: valencene oxidation; many organisms, eukaryotes and prokaryotes
Description: In addition to plant produced nootkatone a number of enzyme systems produced by organisms other than higher plants have the capability of converting synthetic precursors of nootkatone to nootkatone itself. Thus, for example, a variety of microorganisms can oxidise valencene to nootkatone.
Whilst investigating such transformations as effected by bacteria and fungi, it was deduced that the conversion was the result of two oxidative steps. The first was indicated to be carried out by an enzyme thought to be a cytochrome P450 or related enzyme system. The second appeared as an oxidoreductase transformation.

[6] = Toxicity of nootkatone at concentrations in grapefruit juice; conditions: at concentrations found in normal strength grapefruit juice (approximately 7 mg/200 ml)
cytochrome P450 3A4 [7] = target: T1, cytochrome P450 3A4; test: biochemical; format: binding
Experimental: Human cytochrome P450 3A4 was expressed using the vector pAAH5 (p3A4) in Saccharomyces cerevisiae strain AH22 (Guengerich et al., 1991). Plasmid DNA was prepared using Promega's Wizard kit and S. cerevisiae strain AH22 (a his4-519 leu2-3,2-112) was used for transformation. Transformants were grown and maintained at 30° C. on minimal medium containing 2% (w/v) glucose, 0.67% (w/v) Difco yeast nitrogen base without amino acids and 20 μg/ml histidine. Cytochrome P450 content and substrate binding studies were carried out spectrally using a Philips PU8800 US/Vis scanning spectrophotometer according to Omura and Sato (1964) and Jefcoate (1979) respectively. Protein content was determined by the method of Lowry et al. 1956. Yeast microsomal fractions used in reduced carbon monoxide difference spectra, substrate binding studies and metabolism studies were prepared as described previously (Mehmood et al., 1995). This involved mechanical breakage of the yeast cells (harvested at 5×10^7 cells/ml) using a Braun MSK homogeniser and centrifugation to pellet cells and mitochondria prior to harvesting microsomes after 1 h, 100000 g. […] CO was bubbled into the sample cuvette and the difference spectrum was recorded between 390-500 nm. […] Nootkatone was added to the microsomal fractions in the sample cuvette but to the buffer in the reference cuvette and difference spectra recorded between 350-500 nm.

T1 sequence (P08684 whole entry): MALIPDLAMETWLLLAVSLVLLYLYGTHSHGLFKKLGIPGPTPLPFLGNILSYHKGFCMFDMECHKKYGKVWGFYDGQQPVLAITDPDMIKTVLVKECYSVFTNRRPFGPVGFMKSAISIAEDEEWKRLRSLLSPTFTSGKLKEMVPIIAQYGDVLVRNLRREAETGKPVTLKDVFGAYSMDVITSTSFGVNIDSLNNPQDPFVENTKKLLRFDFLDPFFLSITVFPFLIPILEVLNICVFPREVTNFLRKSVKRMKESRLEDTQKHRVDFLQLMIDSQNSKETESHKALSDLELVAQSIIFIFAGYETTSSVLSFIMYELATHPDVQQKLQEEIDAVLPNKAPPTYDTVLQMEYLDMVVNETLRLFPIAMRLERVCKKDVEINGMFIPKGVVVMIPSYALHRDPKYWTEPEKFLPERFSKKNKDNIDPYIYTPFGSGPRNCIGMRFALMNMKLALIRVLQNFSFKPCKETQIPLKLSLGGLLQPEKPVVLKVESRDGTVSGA

For `CCOC(=O)C1=C(C)NC(C)=C(C(=O)OC)C1c1cccc([N+](=O)[O-])c1` (racemic) [nitrendipine], the gastrointestinal absorption [1] is listed as “almost complete” and the systemic bioavailability [1] is listed as 5% to 30.

For `CCOC(=O)C1=C(C)NC(C)=C(C(=O)OC)C1c1cccc(Cl)c1Cl` (stereo not shown) [felodipine], the average bioavailability [2] is listed as 15%.

In the case of `CC(=O)N1CCN(c2ccc(OCC3COC(Cn4ccnc4)(c4ccc(Cl)cc4Cl)O3)cc2)CC1` (stereo not shown) [ketoconazole], the “inhibition of CYP3A4” value (CYP3A4) is given as “known to inhibit CYP3A4”.

In the case of `C[C@@H]1O[C@@H](O[C@H]2[C@H](Oc3cc(O)c4c(c3)O[C@H](c3ccc(O)cc3)CC4=O)O[C@H](CO)[C@@H](O)[C@@H]2O)[C@H](O)[C@H](O)[C@H]1O` [naringin], the “interaction with felodipine compared with grapefruit juice” value [3] is given as “less interaction”.

For `C=C(C)C1CCC2=CC(O)CC(C)C2(C)C1` (stereo not shown) [nootkatol], the “inhibitory effect compared with nootkatone” value (cytochrome P450 3A4 [4]; similar experiments to nootkatone) was “less marked inhibitory effect”.

For `C=C(C)[C@@H]1CCC2=CC(=O)C[C@@H](C)[C@]2(C)C1` [nootkatone], the “inhibition of the first enzyme catalysed oxidative step” value [5] was “acts as an inhibitor of the first enzyme catalysed oxidative step”, the IC50 (cytochrome P450 3A4 [4]) was < 140 µM and the toxicity [6] was “does not appear to be toxic”. For the same compound, the Kd (cytochrome P450 3A4 [7]) was 80 to 100 µM.

Reference: patent US6054490A, “Use of sesquiterpenes for inhibiting oxidative enzymes” (Zylepsis Limited, priority 1995, dated 2000)
